{
  "source": "patent US11478001B2",
  "about": "“Methods of administering a pre-operative carbohydrate-rich beverage composition” (ClearFast Inc., priority 2014, dated 2022)",
  "origin": "cited, not measured here",
  "conditions": "short-term oral administration",
  "data": [
    {"compound": "NC(=O)NCCC[C@H](N)C(=O)O", "note": "[L-citrulline]", "values": [
      {"measurement": "safety and tolerability", "value": "safe and well tolerated"}
    ]}
  ]
}
